Laboratory results published in US20240293551A1, “USE OF ST-TYPE LIPID COMPOUNDS IN PREPARATION OF NUCLEIC ACID DELIVERY REAGENT AND RELATED PRODUCT” (INSTITUTE OF BASIC MEDICAL SCIENCES CHINESE ACADEMY OF …, priority 2021, published 2024).

Test system: PGY-sRNA-26
Assay: In vivo delivery study of lipid-nucleic acid mixture (oral gavage, RT-qPCR of PGY-sRNA-26 in tissues)
Design: species or system mouse
Conditions: C57BL/6 mice, gavage, 100 μg lipid: 10 nmol PGY-sRNA-26, 12 hours
How it was run: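 C57BL/6 male mice (~6 weeks, 20-24 g), fasted 12 h, were gavaged with 10 nmol 3′-methylated PGY-sRNA-26 mixed with 100 μg lipid (heated 90° C. 15 min), versus saline or free sRNA (n=4 each). After 12 h, blood and tissues were Trizol-extracted; sRNA quantified by stem-loop RT-qPCR relative to U6.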

CC(C)CCC[C@@H](C)[C@H]1CC[C@H]2[C@@H]3CC[C@H]4CCCC[C@]4(C)[C@H]3CC[C@]12C [Lipid 653, 5α-cholestane (5R,8R,9S,10S,13R,14S,17R)-10,13-dimethyl-17-[(2R)-6-methylheptan-2-yl]-2,3,4,5,6,7,8,9,11,12,14,15,16,17-tetradecahydro-1H-cyclopenta[a]phenanthrene]
exhibited the best delivery efficacy: delivery efficacy over each tissue and blood tested (broad-spectrum delivery) (all tissues and blood tested)
can effectively orally deliver: oral delivery of single-stranded sRNA nucleic acids into mouse blood (blood) | oral delivery of single-stranded sRNA nucleic acids into mouse brain tissue (brain) | oral delivery of single-stranded sRNA nucleic acids into mouse femur (femur) | oral delivery of single-stranded sRNA nucleic acids into mouse heart tissue (heart) | oral delivery of single-stranded sRNA nucleic acids into mouse intestinal tissue (intestine) | oral delivery of single-stranded sRNA nucleic acids into mouse kidney tissue (kidney) | oral delivery of single-stranded sRNA nucleic acids into mouse liver tissue (liver) | oral delivery of single-stranded sRNA nucleic acids into mouse lung tissue (lung) | oral delivery of single-stranded sRNA nucleic acids into mouse spleen tissue (spleen) | oral delivery of single-stranded sRNA nucleic acids into mouse stomach tissue (stomach)
